Assay results from patent US20230157286A1, “METHODS FOR INCREASING SECONDARY METABOLITE PRODUCTION IN CANNABIS” (priority 2021, published 2023).

Key:
[1] = tested on: cannabis clones of the gelato varietal; assay: Aroma compound analysis of cannabis flower by GCxGC-FID/TOF-MS; assay type: in vivo; conditions: compared with control and G1
Procedure: The major volatile aroma compounds of the flowers from the Cannabis plants were extracted using methanol as a solvent. 200 mg of flower was placed into a scintillation vial followed by mechanical grinding with a plastic disposable spatula. 2 mL of methanol was added to the flower and agitated for 15 minutes, followed by transferring 4 μL of the solution using a filtered syringe to a 20 mL headspace vial and crimped using an electric crimper.
GC×GC analysis was performed using the INSIGHT™ reverse fill flush flow modulator (SepSolve Analytical). This was coupled for data generation to an Agilent 7890B GC and BenchTOF Select Time of flight mass spectrometer (Markes International). Time-of-Flight Mass spectrometry (TOF-MS) was used to identify compounds. Quantification of compounds was done using a flame ionization detector (HD). Sample introduction was done using a Centri Sample Concentration Platform (Markes International). […]
Data was collected, integrated, and analyzed using the ChromSpace software platform (Sepsolve Analytical). Compounds were quantified from GC×GC—FID data with calibration curves using a 40-compound terpene standard (LGC Standards). […]
Three different samples of the plants shown in FIG. 4 were measured to obtain an average.
Three different samples of the plants shown were measured to for each group.

[2] = tested on: cannabis clones of the gelato varietal; conditions: in vivo

Structure (SMILES)	volatile aroma compound production / aroma content, in words [1]	THC and total cannabinoid concentration / cannabinoid production, in words [2]
O=S(=O)([O-])[O-].[K+].[K+] [K2SO4, potassium sulfate]	negatively affects	negatively affects
COc1ccc2[nH]cc(CCNC(C)=O)c2c1 [melatonin]	–	increased cannabinoid production relative to the control group
